The structures appear in SMILES notation.

The test deals with neuraminidase present in CHO cell supernatant. Kind of test: Inhibition of CHO neuraminidase activity, 4MU-NANA artificial substrate assay. The test is classed as biochemical, Chinese hamster. Here is the method: The artificial substrate 2'-(4-methylumbelliferyl)-α-D-N-acetylneuraminic acid (4MU-NANA) was used to assay for neuraminidase activity (modified from Potier et al., Anal. Biochem., 1979, 94, 287). The standard assay for lysate neuraminidase activity contained 0.1M sodium acetate (pH 3-6) or potassium phosphate (pH 6-8) buffer (10 μl of 1 M stock), 1 mM 4MU-NANA (25 μl from a 4 mM aliquot), and the lysate of 0.25 million cells ([…]) in a total volume of 100 μl. Supernatant samples were assayed identically, with supernatant replacing the added cell lysate. The 100 μl samples in plastic 1.5 ml tubes were placed in a 37° C. water bath with a shaker for 30 minutes (sometimes 60 minutes), and the reaction was stopped with 0.9 ml of 0.2M glycine (pH 10.4). […] An HP 1090 Series II HPLC coupled to an HP 1046A flow through fluorescence detector (Hewlett-Packard) was used for automated sample injection and analysis (no column). […] The fluorescence was integrated vs. time and compared to standard 4-methylumbelliferyl dilutions. […]
Aliquots of previously frozen and disrupted cells were thawed to 37° C. and assayed for neuraminidase activity as in the standard assay except the 4MU-NANA concentration varied at 0.1, 0.2, 0.4, 1 and 2 mM (pH 4.5, 5.5, 6.5 and 7.5). […] Kinetic parameters were determined by fitting an integrated form of the Michaelis-Menton equation: […]

Take `CC(=O)N[C@H]1[C@H]([C@H](O)[C@H](O)CO)OC(C(=O)O)=C[C@@H]1O` [2,3-D, 2,3-dehydro-2-deoxy-N-acetylneuraminic acid]: the “inhibition of the neuraminidase present in CHO cell supernatant” value is given as “shown to inhibit”.

On to `CC(=O)N[C@H]1[C@H]([C@H](O)[C@H](O)CO)OC(O)(C(=O)O)C[C@@H]1O` (some centres unmarked) [NANA, N-acetylneuraminicacid], for which the “inhibition of the neuraminidase present in CHO cell supernatant” value is “shown to inhibit”.
